The source of these data is patent publication US20240342316A1, “A PHARMACEUTICAL COMPOSITION FOR IMAGING” (ASTELLAS PHARMA INC., priority 2021, published 2024).

Molecules are shown by their SMILES.

The nature of data set [1]: Phase 1 single ascending IV bolus dose study: plasma and urine pharmacokinetics. The note with it: for t1/2, apparent terminal plasma elimination half-life: healthy participants, n = 4, arithmetic mean.
Source text: The study (ClinicalTrials.gov Identifier: NCT03698305) was a randomized, double-blind, placebo-controlled, sequential ascending IV bolus dose group study conducted at a single center (Covance Clinical Research Unit, Inc.) in the United States.
The study population, 30 participants in all, was comprised of 5 cohorts consisting of 6 healthy volunteers (3 females and 3 males) per cohort. […] The study consisted of a screening period, an investigational period, and a follow-up period (FIG. 1). Following successful screening, participants were admitted to the clinic on study day −1.
After at least 5 of 6 patients in a cohort had completed the study procedure, a Dose-Escalation Committee reviewed all PK and safety data, and decided whether to proceed with dose escalation, stop dose escalation, repeat a dose level, or investigate a lower dose level intermediate between the current and prior doses.
Blood and urine samples were collected over a 24-hour period. Participants were discharged on day 2, returned to the clinic for a follow-up visit on day 7, and the study was completed with a follow-up phone call on day 14. To prevent accidental unblinding should the urine be discolored, catheter and tubing collection bags were covered, and participants were prevented from observing these or the collection vials when changed.
Urine interval sampling was between −1 hour and time of dosing, and between each subsequent consecutive urine sample collection time point.
The safety population comprised all participants who received a single dose of study drug. The PK population comprised safety population participants for which data were available for derivation of ≥1 PK parameter. Pharmacokinetic parameters were calculated by noncompartmental analysis using Phoenix WinNonlin version 8.1 and were summarized by treatment group.
The conditions of data set [2]: NIR versus white light; cited from earlier work.

As for `COC1=C(/C=C/C2=[N+](CCC(=O)NCCCO[C@H]3[C@H]4O[C@H]5[C@H](O)[C@@H](O)[C@@H](O[C@H]6[C@H](O)[C@@H](O)[C@@H](O[C@H]7[C@H](O)[C@@H](O)[C@@H](O[C@H]8[C@H](O)[C@@H](O)[C@@H](O[C@H]9[C@H](O)[C@@H](O)[C@@H](O[C@H]%10[C@H](O)[C@@H](O)[C@@H](O[C@@H]([C@@H]3O)[C@@H](CO)O4)O[C@@H]%10CO)O[C@@H]9CO)O[C@@H]8CO)O[C@@H]7CO)O[C@@H]6CO)O[C@@H]5CO)c3ccc4ccccc4c3C2(C)C)CCC/C1=C\C=C1\N(CCC(=O)NCCCO[C@H]2[C@H]3O[C@H]4[C@H](O)[C@@H](O)[C@@H](O[C@H]5[C@H](O)[C@@H](O)[C@@H](O[C@H]6[C@H](O)[C@@H](O)[C@@H](O[C@H]7[C@H](O)[C@@H](O)[C@@H](O[C@H]8[C@H](O)[C@@H](O)[C@@H](O[C@H]9[C@H](O)[C@@H](O)[C@@H](O[C@@H]([C@@H]2O)[C@@H](CO)O3)O[C@@H]9CO)O[C@@H]8CO)O[C@@H]7CO)O[C@@H]6CO)O[C@@H]5CO)O[C@@H]4CO)c2ccc3ccccc3c2C1(C)C` [Pudexacianinium], the “Mean terminal half-life, range across doses” value in data set [1] (0.1 mg to 24 mg single IV bolus) lay in the range of 2.1 to 3.6 h. Also, the “t1/2, apparent terminal plasma elimination half-life” value in data set [1] (single IV bolus 0.1 mg) was 2.24 h; in data set [1] (single IV bolus 0.5 mg) it was 2.23 h; in data set [1] (single IV bolus 2 mg) it was 2.10 h; in data set [1] (single IV bolus 8 mg) it was 3.58 h; in data set [1] (single IV bolus 24 mg) it was 3.41 h.

As for `CN(C)c1ccc2nc3ccc(=[N+](C)C)cc-3sc2c1` [methylene blue], in data set [2], the “NIRF ureter visualization in first-in-human study” value was “did not provide sufficient optical properties to offer any visualization advantage with NIR over white light”.
